How the values were obtained:
SHP-77 = SHP-77 cancer cell proliferation inhibition (Cell Titer-Glo); type: cell-based; conditions: Homo sapiens, SHP77, SHP-77 small cell lung cancer cell line, 72 hours
Summary of the method: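 GI50 comes from CellTiter-Glo luminescence, read 10 min after reagent addition at RT, following 72 h compound treatment. Eleven concentrations were used (⅓ steps, highest 10 μM final) on 2000 cells/well. MDA-MB-231 and MDA-MB-468 were grown in DMEM, SHP-77 in RPMI.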

[1] = molecular target: T1, human GST-DYRK1A (full length) (Homo sapiens, UniProt Q13627); assay: GST-DYRK1A enzyme inhibition, ADP-Glo kinase assay; type: biochemical; conditions: read-out: DYRK1 IC50
T1 construct: purified human GST-DYRK1A (full length, Thermo scientifics) enzyme; GST; purchased Thermo scientifics
Summary of the method: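 ADP-Glo luminescence quantified kinase activity after a 1 h, 25° C reaction of 10 ng full-length GST-tagged human DYRK1A, substrate and 10 uM ATP in Tris-HCl buffer pH 7.4 with MgCl2, BSA and DTT. Triplicate IC50 values (nM) calculated relative to untreated solvent control.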

LRRK2 = LRRK2 (Homo sapiens, UniProt Q5S007); assay: LRRK2 enzyme inhibition, ADP-Glo kinase assay; type: biochemical; design: purchased Invitrogen PR8604B
LRRK2, sequence (Q5S007 970-2527 limits assumed): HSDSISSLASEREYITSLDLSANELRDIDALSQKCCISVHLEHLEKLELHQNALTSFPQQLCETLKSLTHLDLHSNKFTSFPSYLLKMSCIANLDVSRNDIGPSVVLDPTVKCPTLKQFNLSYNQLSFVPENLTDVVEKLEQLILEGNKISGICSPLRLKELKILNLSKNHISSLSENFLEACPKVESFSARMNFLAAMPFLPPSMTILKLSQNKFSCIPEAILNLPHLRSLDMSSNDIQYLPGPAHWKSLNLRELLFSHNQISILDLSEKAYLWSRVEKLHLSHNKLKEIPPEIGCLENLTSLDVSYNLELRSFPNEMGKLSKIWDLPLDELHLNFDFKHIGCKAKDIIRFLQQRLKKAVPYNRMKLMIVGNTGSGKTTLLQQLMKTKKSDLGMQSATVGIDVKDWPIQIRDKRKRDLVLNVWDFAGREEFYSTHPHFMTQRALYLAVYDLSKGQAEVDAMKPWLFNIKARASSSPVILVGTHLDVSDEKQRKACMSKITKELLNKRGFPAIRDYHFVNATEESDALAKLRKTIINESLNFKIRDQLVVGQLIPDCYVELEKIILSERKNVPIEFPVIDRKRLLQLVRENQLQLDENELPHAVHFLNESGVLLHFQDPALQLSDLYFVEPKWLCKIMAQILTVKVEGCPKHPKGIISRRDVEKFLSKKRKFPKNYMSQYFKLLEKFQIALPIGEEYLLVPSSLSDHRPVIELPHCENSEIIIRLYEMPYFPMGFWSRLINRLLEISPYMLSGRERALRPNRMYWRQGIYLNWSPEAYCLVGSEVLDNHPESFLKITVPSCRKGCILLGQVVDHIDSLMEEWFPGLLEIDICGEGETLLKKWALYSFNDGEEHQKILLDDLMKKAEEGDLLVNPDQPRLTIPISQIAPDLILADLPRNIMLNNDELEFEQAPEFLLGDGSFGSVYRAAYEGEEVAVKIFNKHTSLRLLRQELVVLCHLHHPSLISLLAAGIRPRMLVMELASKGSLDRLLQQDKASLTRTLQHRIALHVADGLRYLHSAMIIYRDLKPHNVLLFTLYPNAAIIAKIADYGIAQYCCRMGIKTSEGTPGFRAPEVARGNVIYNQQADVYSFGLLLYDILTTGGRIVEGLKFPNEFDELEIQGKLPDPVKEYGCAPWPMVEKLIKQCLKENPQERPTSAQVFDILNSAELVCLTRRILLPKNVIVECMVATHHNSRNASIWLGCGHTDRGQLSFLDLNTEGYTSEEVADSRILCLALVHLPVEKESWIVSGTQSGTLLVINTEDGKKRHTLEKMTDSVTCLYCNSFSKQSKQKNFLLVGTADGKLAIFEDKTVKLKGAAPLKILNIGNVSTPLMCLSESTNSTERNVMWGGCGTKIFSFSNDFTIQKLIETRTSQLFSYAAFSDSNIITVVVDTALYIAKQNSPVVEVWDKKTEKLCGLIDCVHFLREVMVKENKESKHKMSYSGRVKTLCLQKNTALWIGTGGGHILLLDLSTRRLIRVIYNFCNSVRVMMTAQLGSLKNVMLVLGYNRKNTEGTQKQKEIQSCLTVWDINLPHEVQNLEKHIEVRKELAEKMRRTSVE
Summary of the method: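 ADP-Glo luminescence read after 2 h at 25° C, 10 μM ATP, 25 ng purified human LRRK2 and […] substrate in Tris-HCl pH7.4 buffer with MgCl2, BSA, DTT. Twelve final concentrations, 50 μM down to 0.000001024 μM; IC50 (nM) from inhibition relative to untreated solvent control.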

human GST-CLK1 (129-end) = molecular target: T2, human GST-CLK1 (129-end) (Homo sapiens, UniProt P49759); assay: GST-CLK1 enzyme inhibition, ADP-Glo kinase assay; type: biochemical; conditions: ATP 10 uM
T2 construct: purified human GST-CLK1 (129-end, Signalchem) enzyme; GST; purchased Signalchem
T2 sequence (P49759 129-484 limits assumed): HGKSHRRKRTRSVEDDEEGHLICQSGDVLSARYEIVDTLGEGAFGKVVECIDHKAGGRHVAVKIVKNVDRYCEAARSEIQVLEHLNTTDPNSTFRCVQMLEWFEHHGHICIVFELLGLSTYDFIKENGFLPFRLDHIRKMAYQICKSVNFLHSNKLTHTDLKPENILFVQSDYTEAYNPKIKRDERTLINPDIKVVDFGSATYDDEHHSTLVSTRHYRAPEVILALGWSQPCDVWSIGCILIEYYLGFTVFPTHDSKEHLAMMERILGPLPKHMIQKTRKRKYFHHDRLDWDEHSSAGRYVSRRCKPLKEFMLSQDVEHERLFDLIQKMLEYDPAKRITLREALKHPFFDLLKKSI
Summary of the method: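 ADP formation was read by ADP-Glo luminescence after 1 h at 25° C with 3 ng human GST-CLK1 (129-end), substrate and 10 uM ATP in Tris pH 7.4 buffer containing MgCl2, BSA and DTT. Inhibition relative to untreated solvent control gave IC50 (nM), run in triplicate.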

human DYRK1A and Tau = assay: Tau phosphorylation inhibition, ClariCELL Kinase Cell-Based Assay (Carnabio)
Summary of the method: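 HEK293 cells transiently expressing human DYRK1A and Tau were exposed to compound, then lysed. Released Tau was captured on plate and its phosphorylation quantified by ELISA with a phospho-Tau-specific antibody.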

GI50 (SHP-77) | IC50 [1] | IC50 (LRRK2) | IC50 (human GST-CLK1 (129-end)) | SMILES | inhibition at 0.25 µM (human DYRK1A and Tau) | inhibition at 0.5 µM (human DYRK1A and Tau) | inhibition at 1 µM (human DYRK1A and Tau)
0.301 to 1 µM | 0.301 to 1 µM | < 0.1 µM | 0.101 to 0.3 µM | CCNc1cc(Nc2ccc(S(=O)(=O)N3CCC(N4CCOCC4)CC3)c3c2OCCO3)nc2[nH]cc(C(F)(F)F)c12 [Example 96, N^4-ethyl-N^6-(8-((4-morpholonopiperidin-1-yl)sulfonyl)-2,3-dihydrobenzo [b] [1,4]dioxin-5-yl)-3-(trifluoromethyl)-1H-pyrrolo[2,3-b]pyridine-4,6-diamine] | 11% | 19.6% | 52.8%
0.051 to 0.1 µM | < 0.1 µM | < 0.1 µM | < 0.1 µM | CNc1cc(Nc2ccc(S(=O)(=O)N3CCC(N4C[C@H]5C[C@@H]4CO5)CC3)cc2OC)nc2[nH]cc(C(F)(F)F)c12 [Example 243, N^6-(4-((4-((1R,4R)-2-oxa-5-azabicyclo[2.2.1]heptan-5-yl)piperidin-1-yl)sulfonyl)-2-methoxyphenyl)-N^4-methyl-3-(trifluoromethyl)-1H-pyrrolo[2,3-b]pyridine-4,6-diamine] | 64.4% | 85% | 104%
0.301 to 1 µM | 0.101 to 0.3 µM | < 0.1 µM | < 0.1 µM | CNc1cc(Nc2ccc(S(=O)(=O)N3CCC(N4CCOCC4)CC3)c3c2OCCO3)nc2[nH]cc(C(F)(F)F)c12 [Example 233, N^4-methyl-N^6-(8-((4-morpholinopiperidin-1-yl)sulfonyl)-2,3-dihydrobenzo [b] [1,4]dioxin-5-yl)-3-(trifluoromethyl)-1H-pyrrolo[2,3-b]pyridine-4,6-diamine] | 17.7% | 34.6% | 70.3%
0.301 to 1 µM | 0.101 to 0.3 µM | < 0.1 µM | < 0.1 µM | COCCNc1cc(Nc2ccc(S(=O)(=O)N3CCC(N4CCOCC4)CC3)c3c2OCCO3)nc2[nH]cc(C(F)(F)F)c12 [Example 97, N^4-(2-methoxyethyl)-N^6-(8-((4-morpholonopiperidin-1-yl)sulfonyl)-2,3-dihydrobenzo[b] [1,4]dioxin-5-yl)-3-(trifluoromethyl)-1H-pyrrolo[2,3-b]pyridine-4,6-diamine] | 22.3% | 42% | 67.2%

From US12240844B2 (Voronoi, Inc., priority 2019, dated 2025)
